Source: PubChem BioAssay AID248 (DTP/NCI, 2004)
Where “and” joins values, the source holds several entries; their conditions need not be identical. Identical values can stand only once. Toxic doses and inconclusive results are not listed. Rule as the data show it: active = T/C of 150% or more; inactive = T/C below 125%.

Tested on: L1210 leukemia ip in BDF1 mice, survival T/C
Assay: NCI In Vivo Anticancer Drug Screen. Data for tumor model L1210 Leukemia (intraperitoneal) in B6D2F1 (BDF1) mice
Conditions: endpoint: mean survival time, higher = longer survival
Procedure, shortened: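 Survival endpoint. Drug-treated group vs vehicle group, expressed as T divided by C. Tumor passaged by transplantation.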

[1] = dose: 100.0 mg/kg/injection, schedule: Q01DX001 (ip), vehicle: saline
[2] = dose: 400.0 mg/kg/injection, schedule: Q01DX001 (ip), vehicle: saline
[3] = dose: 100.0 mg/kg/injection, schedule: Q01DX009 (ip), vehicle: Klucel (hydroxypropylcellulose) (HPC)
[4] = dose: 100.0 mg/kg/injection, schedule: Q04DX003 (ip), vehicle: Klucel (hydroxypropylcellulose) (HPC)
[5] = dose: 200.0 mg/kg/injection, schedule: Q01DX009 (ip), vehicle: Klucel (hydroxypropylcellulose) (HPC)
[6] = dose: 200.0 mg/kg/injection, schedule: Q04DX003 (ip), vehicle: Klucel (hydroxypropylcellulose) (HPC)
[7] = dose: 400.0 mg/kg/injection, schedule: Q04DX003 (ip), vehicle: Klucel (hydroxypropylcellulose) (HPC)
[8] = dose: 100.0 mg/kg/injection, schedule: Q04DX003 (ip), vehicle: saline with Tween-80
[9] = dose: 200.0 mg/kg/injection, schedule: Q04DX003 (ip), vehicle: saline with Tween-80
[10] = dose: 400.0 mg/kg/injection, schedule: Q04DX003 (ip), vehicle: saline with Tween-80
[11] = dose: 100.0 mg/kg/injection, schedule: Q01DX001 (ip), vehicle: carboxymethylcellulose (CMC)
[12] = dose: 200.0 mg/kg/injection, schedule: Q01DX001 (ip), vehicle: carboxymethylcellulose (CMC)
[13] = dose: 400.0 mg/kg/injection, schedule: Q01DX001 (ip), vehicle: carboxymethylcellulose (CMC)
[14] = dose: 100.0 mg/kg/injection, schedule: Q01DX009 (ip), vehicle: saline with Tween-80
[15] = dose: 200.0 mg/kg/injection, schedule: Q01DX009 (ip), vehicle: saline with Tween-80
[16] = dose: 400.0 mg/kg/injection, schedule: Q01DX009 (ip), vehicle: saline with Tween-80

Measured: T/C

CCCC(=O)c1cc(C)sc1C
inactive: dose: 100.0 mg/kg/injection, schedule: Q01DX009 (sc), vehicle: olive oil, sesame oil, peanut oil 90 % of control | dose: 100.0 mg/kg/injection, schedule: Q04DX003 (sc), vehicle: olive oil, sesame oil, peanut oil 100 % of control | dose: 200.0 mg/kg/injection, schedule: Q01DX009 (sc), vehicle: olive oil, sesame oil, peanut oil 87 % of control | dose: 200.0 mg/kg/injection, schedule: Q04DX003 (sc), vehicle: olive oil, sesame oil, peanut oil 93 % of control | dose: 400.0 mg/kg/injection, schedule: Q01DX009 (sc), vehicle: olive oil, sesame oil, peanut oil 99 % of control | dose: 400.0 mg/kg/injection, schedule: Q04DX003 (sc), vehicle: olive oil, sesame oil, peanut oil 100 % of control

O=C(N/N=C/c1ccc(Cl)cc1Cl)c1cccc2ccccc12
inactive: [1] 92 % of control | [2] 86 % of control

COc1cccc(/C=C/[N+](=O)[O-])c1OCc1ccccc1
inactive: dose: 12.5 mg/kg/injection, schedule: Q04DX003 (ip), vehicle: saline with Tween-80 117 % of control | dose: 25.0 mg/kg/injection, schedule: Q04DX003 (ip), vehicle: saline with Tween-80 95 % of control | dose: 50.0 mg/kg/injection, schedule: Q04DX003 (ip), vehicle: saline with Tween-80 111 % of control

CCOC(=O)C(C)C1CCCc2c(C)ccc(C)c21 (stereo not drawn)
inactive: [3] 100 % of control | [4] 98 % of control | [5] 102 % of control | [6] 92 % of control | dose: 400.0 mg/kg/injection, schedule: Q01DX009 (ip), vehicle: Klucel (hydroxypropylcellulose) (HPC) 93 % of control | [7] 98 % of control

O=[N+]([O-])c1ccc(N2CCCC2)cc1
inactive: dose: 100.0 mg/kg/injection, schedule: Q01DX001 (ip), vehicle: Klucel (hydroxypropylcellulose) (HPC) 97 % of control | dose: 200.0 mg/kg/injection, schedule: Q01DX001 (ip), vehicle: Klucel (hydroxypropylcellulose) (HPC) 105 % of control | dose: 400.0 mg/kg/injection, schedule: Q01DX001 (ip), vehicle: Klucel (hydroxypropylcellulose) (HPC) 108 % of control

Nc1ccc(CCc2ccc(S(=O)(=O)F)cc2)cc1
inactive: [1] 108 % of control | dose: 200.0 mg/kg/injection, schedule: Q01DX001 (ip), vehicle: saline 103 % of control | [2] 102 % of control

CC12CCC(O)CC1CCC1C2CCC2(C)C(c3ccc(=O)oc3)CC3OC312 (stereo not drawn)
inactive: dose: 50.0 mg/kg/injection, schedule: Q01DX001 (sc), vehicle: steriod suspending solution 105 % of control | dose: 100.0 mg/kg/injection, schedule: Q01DX001 (sc), vehicle: steriod suspending solution 105 % of control | dose: 200.0 mg/kg/injection, schedule: Q01DX001 (sc), vehicle: steriod suspending solution 96 % of control | dose: 400.0 mg/kg/injection, schedule: Q01DX001 (sc), vehicle: steriod suspending solution 100 % of control

CCSC(SCC)C(OC(C)=O)C(OC(C)=O)C(OC(C)=O)C(COC(c1ccccc1)(c1ccccc1)c1ccccc1)OC(C)=O (stereo not drawn)
inactive: dose: 100.0 mg/kg/injection, schedule: Q04DX002 (ip), vehicle: saline with Tween-80 101 % of control | dose: 200.0 mg/kg/injection, schedule: Q04DX002 (ip), vehicle: saline with Tween-80 89 % of control

CC(=O)CC(=O)Nc1ccc(Cl)cc1
inactive: dose: 100.0 mg/kg/injection, schedule: Q04DX002 (ip), vehicle: Klucel (hydroxypropylcellulose) (HPC) 105 % of control | dose: 177.0 mg/kg/injection, schedule: Q04DX002 (ip), vehicle: Klucel (hydroxypropylcellulose) (HPC) 102 % of control | dose: 200.0 mg/kg/injection, schedule: Q04DX002 (ip), vehicle: Klucel (hydroxypropylcellulose) (HPC) 86 % of control | dose: 266.0 mg/kg/injection, schedule: Q04DX002 (ip), vehicle: Klucel (hydroxypropylcellulose) (HPC) 92 % of control | dose: 400.0 mg/kg/injection, schedule: Q04DX002 (ip), vehicle: Klucel (hydroxypropylcellulose) (HPC) 95 % of control | dose: 600.0 mg/kg/injection, schedule: Q04DX002 (ip), vehicle: Klucel (hydroxypropylcellulose) (HPC) 92 % of control

COc1c2c(cc3c1N(C)C(=O)CC3C)C(C)CC(=O)N2 (stereo not drawn)
inactive: dose: 75.0 mg/kg/injection, schedule: Q04DX003 (ip), vehicle: Klucel (hydroxypropylcellulose) (HPC) 98 % of control

CC1CN=C(c2ccc(O)c(O)c2)S1 (stereo not drawn)
inactive: dose: 100.0 mg/kg/injection, schedule: Q04DX002 (ip), vehicle: saline 107 % of control | dose: 200.0 mg/kg/injection, schedule: Q04DX002 (ip), vehicle: saline 107 % of control | dose: 400.0 mg/kg/injection, schedule: Q04DX002 (ip), vehicle: saline 100 % of control

O=C(COc1ccc(Cl)c(Cl)c1)Nc1ccc[n+](Cc2ccc(Cl)cc2S(=O)(=O)F)c1
inactive: [8] 97 % of control | [9] 94 % of control | [10] 101 % of control

NCC1OC(OC2C(CO)OC(OC3C(O)C(N)CC(N)C3OC3OC(CO)C(O)CC3N)C2O)C(N)C(O)C1OC1OC(CO)C(O)C(O)C1O (stereo not drawn)
inactive: dose: 100.0 mg/kg/injection, schedule: Q01DX005 (ip), vehicle: saline 96 % of control | dose: 100.0 mg/kg/injection, schedule: Q01DX009 (ip), vehicle: saline 100 % of control | dose: 200.0 mg/kg/injection, schedule: Q01DX005 (ip), vehicle: saline 101 % of control | dose: 200.0 mg/kg/injection, schedule: Q01DX009 (ip), vehicle: saline 110 % of control | dose: 400.0 mg/kg/injection, schedule: Q01DX005 (ip), vehicle: saline 101 % of control | dose: 400.0 mg/kg/injection, schedule: Q01DX009 (ip), vehicle: saline 100 % of control

Oc1ccc2ccccc2c1/C=N/N=c1\[nH][nH]/c(=N\N=C\c2c(O)ccc3ccccc23)c2ccccc12
inactive: dose: 50.0 mg/kg/injection, schedule: Q01DX001 (ip), vehicle: carboxymethylcellulose (CMC) 95 % of control | [11] 93 % of control | [12] 98 % of control | [13] 87 % of control

NCC(=O)OC(c1ccccc1)(c1ccccc1)c1ccccc1
inactive: [3] 96 % of control | [4] 98 % of control | [5] 96 % of control | [6] 88 % of control | [7] 89 % of control

CCCCCCC(=O)N(C(C)C)C(C)C
inactive: [11] 100 % of control | dose: 100.0 mg/kg/injection, schedule: Q01DX009 (ip), vehicle: carboxymethylcellulose (CMC) 103 % of control and 104 % of control | dose: 100.0 mg/kg/injection, schedule: Q04DX002 (ip), vehicle: carboxymethylcellulose (CMC) 98 % of control and 103 % of control | dose: 100.0 mg/kg/injection, schedule: Q04DX003 (ip), vehicle: carboxymethylcellulose (CMC) 104 % of control | [12] 98 % of control | dose: 200.0 mg/kg/injection, schedule: Q01DX009 (ip), vehicle: carboxymethylcellulose (CMC) 97 % of control and 100 % of control | dose: 200.0 mg/kg/injection, schedule: Q04DX002 (ip), vehicle: carboxymethylcellulose (CMC) 93 % of control and 98 % of control | dose: 200.0 mg/kg/injection, schedule: Q04DX003 (ip), vehicle: carboxymethylcellulose (CMC) 102 % of control | [13] 88 % of control | dose: 400.0 mg/kg/injection, schedule: Q01DX009 (ip), vehicle: carboxymethylcellulose (CMC) 93 % of control | dose: 400.0 mg/kg/injection, schedule: Q04DX002 (ip), vehicle: carboxymethylcellulose (CMC) 92 % of control

CC1(C)C(=O)C2(C(=O)O)CCC1C2 (stereo not drawn)
inactive: [14] 93 % of control | [8] 101 % of control | [15] 98 % of control | [9] 101 % of control | [16] 96 % of control | [10] 88 % of control

CN(C)C1(Cc2ccccc2)c2ccccc2-c2ccc(Br)cc21 (stereo not drawn)
inactive: dose: 6.25 mg/kg/injection, schedule: Q01DX009 (ip), vehicle: saline with Tween-80 92 % of control | dose: 12.5 mg/kg/injection, schedule: Q01DX009 (ip), vehicle: saline with Tween-80 89 % of control | dose: 25.0 mg/kg/injection, schedule: Q01DX009 (ip), vehicle: saline with Tween-80 89 % of control | [14] 88 % of control

CCCCOC(=O)c1ccc(NC(=O)NCCC)cc1
inactive: [14] 90 % of control | [15] 88 % of control | [16] 95 % of control

CC(=O)Nc1ccc2c(c1)Cc1cc(N=Cc3ccccn3)ccc1-2
inactive: dose: 50.0 mg/kg/injection, schedule: Q04DX003 (ip), vehicle: Klucel (hydroxypropylcellulose) (HPC) 87 % of control | [4] 90 % of control
